According to PMC11207040, “Synthesis and Biological Studies of New Temporin A Analogs Containing Unnatural Amino Acids in Position 7” (Pharmaceutics, 2024):
≈ marks a conversion by molar mass, not a printed value. Where “and” joins values, the source holds several entries; their conditions need not be identical. Equal values may be shown once. Read-outs that look alike come from different tables or passages of the source. Non-standard residues stand in square brackets, D forms with d. Residues, ends and D or L forms follow the SMILES beside them. Cit = NC(=O)NCCC[C@H](N)C(=O)O; Dap = NC[C@H](N)C(=O)O

What was measured:
[1] = tested on: Escherichia coli NBIMCC 8785; assay type: cell-based; details: for Inhibition zone, E. coli 8785: 20 µL per disc, 24 h
Procedure: (§1) The parent peptide Temporin A and the novel analogs were subjected to tests against model strains Escherichia coli NBIMCC 8785, Bacillus subtilis NBIMCC 3562, Arthrobacter oxydans NBIMCC 9333, Pseudomonas aeruginosa NBIMCC 3700, and Candida albicans NBIMCC 74, for the assessment of their antimicrobial activity. The strains were acquired from the National Bank for Industrial Microorganisms and Cell Cultures (NBIMCC, Bulgaria). The strain E. coli 8785 was cultured in Luria-Bertani broth (LB, HiMedia, Mumbai, India); B. subtilis 3562—in nutrient broth (NB, HiMedia, Mumbai, India); A. oxydans 9333; P. aeruginosa 3700—in meat peptone agar (MPA) medium; and C. albicans 74—in yeast mold (YM) medium. An incubator shaker ES-20/60 (Biosan, Latvia) was used for the cultivation and was set to 30 °C for B. subtilis 3562, A. oxydans 9333, and C. albicans 74; and 37 °C for E. coli 8785 and P. aeruginosa 3700, with a 24 h shaking period at 120 rpm. The microbial cultures were then adjusted to a turbidity of 0.5 McFarland using a Grant-bio DEN-1B densitometer (Grant Instruments, Royston, UK) for further use.
(§2) The disk-diffusion method was used as an additional method, with the aim of determining the percent inhibition of the tested samples against the model strains. Sterile plates with LB/NB/MPA/YM agar medium were inoculated on the surface with 100 μL from each microbial culture and incubated at 30 or 37 °C for 30 min, for the suspension to penetrate the agar. After that, sterile paper discs (HiMedia, Mumbai, India) with a diameter of 6 mm were soaked with 20 µL of the peptide solutions with concentrations of 1.4 mg/mL and 10 mg/mL and placed on the agar surface. Sterile paper discs with 10% EtOH/H2O were used as a negative control, and the corresponding strain antibiotic disks (HiMedia, Mumbai, India)—as a positive control. The incubation of the plate was performed at 30/37 °C for 24 h. The antimicrobial activity was analyzed by measuring the diameter of the inhibition zones in mm. The experiments were conducted in triplicates, and the average values for the percent of inhibition as a correlation between the inhibition zone of the peptides over the inhibition zone of the antibiotic multiplied by 100 were calculated.

[2] = tested on: Pseudomonas aeruginosa NBIMCC 3700; assay type: cell-based; details: for Inhibition effect, P. aeruginosa 3700: zone of peptide over zone of antibiotic x 100; for Inhibition zone, P. aeruginosa 3700: 20 µL per disc, 24 h
Procedure: as §1, §2

[3] = tested on: MDA-MB-231 cells; assay: MTT antiproliferative assay, MDA-MB-231; assay type: cell-based, human; details: for IC50: MTT, 72 h, read-out: Mean IC50 ± SD, MDA-MB-231; for SI (Selectivity Index), MDA-MB-231: SI = IC50 MCF-12F/IC50 tumor cells
Procedure: (§3) The cell lines BALB 3T3 (mouse embryonic fibroblasts) and MCF-12F (human breast epithelial cells) were used as models for healthy tissue. The MCF-7 and MDA-MB-231 cell lines were used as in vitro models for luminal A- and basal B-type breast cancer, respectively. Cell lines were obtained from the American Type Cultures Collection (ATCC, Manassas, VA, USA). Cells were cultured in Dulbecco modified Eagle’s medium (DMEM) supplemented with 10% fetal bovine serum (FBS), 100 U/mL penicillin, and 0.1 mg/mL streptomycin (Sigma-Aldrich, Schnelldorf, Germany) in an incubator at 37 °C, 5% CO2 and 95% humidity. Plastic flasks 75 cm^2 (Biologix, Lenexa, KS, USA) were used to grow the cells.
(§4) The antiproliferative activity testing was performed on cell cultures using the MTT-dye reduction assay. This assay is based on the metabolism of MTT to insoluble formazan by mitochondrial reductases. The formazan concentration can be determined spectrophotometrically. The measured absorption is an indicator of cell viability. Cell lines (MCF-12F, MCF-7 and MDA-MB-231) were used in the experiments. Cells were plated at a density of 1 × 10^3 cells/100 µL in each well of 96-well microplates and allowed to adhere for 24 h before treatment with test compounds. A concentration range from 4 to 1000 μM was applied for 72 h. The formazan absorption was registered using a microplate reader at λ = 540 nm. Antiproliferative activities were expressed as IC50 values (concentrations required for 50% inhibition of cell growth).

[4] = tested on: Bacillus subtilis NBIMCC 3562; assay type: cell-based; details: for Inhibition effect, B. subtilis 3562: zone of peptide over zone of antibiotic x 100; for Inhibition zone, B. subtilis 3562: 20 µL per disc, 24 h
Procedure: as §1, §2

[5] = tested on: Candida albicans NBIMCC 74; assay type: cell-based; details: for Inhibition zone, C. albicans 74: 20 µL per disc, 24 h
Procedure: as §1, §2

[6] = tested on: Arthrobacter oxydans NBIMCC 9333; assay type: cell-based; details: for Inhibition effect, A. oxydans 9333: zone of peptide over zone of antibiotic x 100; for Inhibition zone, A. oxydans 9333: 20 µL per disc, 24 h
Procedure: as §1, §2

[7] = tested on: BALB 3T3 clone A31 cells; assay: 3T3 NRU cytotoxicity/phototoxicity test; assay type: cell-based, mouse; details: PIF = CC50 −Irr/CC50 +Irr; PIF < 2 = not phototoxic
Procedure: as §3
(§5) The cytotoxicity/phototoxicity testing was performed as described by the OECD Guidelines for the Testing of Chemicals, Section 4, Test No. 432: In Vitro 3T3 NRU Phototoxicity Test. BALB 3T3, clone A31 cells were grown in 75 cm^2 tissue culture flasks in DMEM high-glucose (4.5 g/L), 10% FBS, and antibiotics at 37.5 °C, in a humidified atmosphere under 5% CO2. Cells were plated at 1 × 10^4 cells / 100 μL culture medium in each well of 96-well microplates and allowed to adhere for 24 h before treatment with test compounds. Peptides were dissolved in DMSO and diluted with culture medium to working concentrations from 4 to 1000 μM. In phototoxicity tests, 96-well plates were irradiated (+Irr) with a dose of 2.4 J/cm^2 using an artificial solar light simulator Helios-iO (SERIC Ltd., Tokyo, Japan), and the cells were incubated for an additional 24 h. After treatment with a Neutral Red medium, washing, and application of the NR Desorb solution, the absorption was measured on a microplate reader at a wavelength of 540 nm. Cytotoxicity/phototoxicity was expressed as CC50 values (concentrations required for 50% cytotoxicity).

[8] = 3T3 NRU cytotoxicity/phototoxicity test; assay type: cell-based, mouse; details: mouse; for CC50: cytotoxicity, no irradiation, BALB 3T3 clone A31, Neutral Red uptake, read-out: Mean CC50 ± SD, −Irr; for CC50 at 24 h: phototoxicity, irradiated 2.4 J/cm^2, BALB 3T3 clone A31, Neutral Red uptake, read-out: Mean CC50 ± SD, +Irr
Procedure: as §3, §5

[9] = tested on: MCF-7 cells; assay: MTT antiproliferative assay, MCF-7; assay type: cell-based, human; details: for IC50: MTT, 72 h, read-out: Mean IC50 ± SD, MCF-7; for SI (Selectivity Index), MCF-7: SI = IC50 MCF-12F/IC50 tumor cells
Procedure: as §3, §4

[10] = tested on: MCF-12F cells; assay: MTT antiproliferative assay, MCF-12F; assay type: cell-based, human; details: 72 h, non-tumorigenic cell line, read-out: Mean IC50 ± SD, MCF-12F
Procedure: as §3, §4

[11] = tested on: Arthrobacter oxydans NBIMCC 9333; assay type: cell-based; details: 24 h
Procedure: as §1
(§6) The minimal inhibitory concentration (MIC) of the peptides was determined using the broth dilution method. Stock solutions of the peptides with a concentration of 10 mg/mL in 10% EtOH/H2O were prepared. Suspensions of the bacteria in the corresponding media were added to 96-well U-shaped bottom polystyrene plates (Deltalab S.L., Spain) and exposed to the peptide in the concentration range from 0 to 320 µg/mL, and a 10% EtOH/H2O control, diluted using the same scheme as the peptides, was also used. The plates were then incubated under aerobic conditions at the corresponding temperature for 24 h. The MIC (µg/mL) was assumed as the lowest concentration of the antimicrobial, where there was visible inhibition of the strain. The absorbance was measured at 630 nm (Microplate reader PKL PPC 142, Paramedical srl, Salerno, Italy). To determine the minimal bactericidal concentration (MBC) and minimal fungicidal concentration (MFC), 10 μL from concentrations greater than or equal to the MIC was placed on the corresponding solid nutrient medium. The Petri dishes were then incubated at 30 or 37 °C for 24 h. All experiments were conducted in a triplicate.

[12] = tested on: Bacillus subtilis NBIMCC 3562; assay type: cell-based; details: broth dilution, 0 to 320 µg/mL, 24 h; NI = no inhibition monitored
Procedure: as §1, §6

[13] = 10 µg/disk, positive control on the plate of the peptide of that line

Compound | IC50 [3] [µM] | SI (Selectivity Index), MDA-MB-231 [3] | Inhibition effect, B. subtilis 3562 ([4]; 1.4 mg/mL) [%] | Inhibition effect, B. subtilis 3562 ([4]; 10 mg/mL) [%] | Inhibition zone, B. subtilis 3562 ([4]; peptide 1.4 mg/mL) [mm] | Inhibition zone, B. subtilis 3562 ([4]; peptide 10 mg/mL) [mm] | Inhibition zone, E. coli 8785 ([1]; peptide 1.4 mg/mL) [mm] | Inhibition zone, E. coli 8785 ([1]; peptide 10 mg/mL) [mm] | Inhibition zone, C. albicans 74 ([5]; peptide 1.4 mg/mL) [mm] | Inhibition zone, C. albicans 74 ([5]; peptide 10 mg/mL) [mm] | Inhibition effect, A. oxydans 9333 ([6]; 1.4 mg/mL) [%] | Inhibition effect, A. oxydans 9333 ([6]; 10 mg/mL) [%] | Inhibition zone, A. oxydans 9333 ([6]; peptide 1.4 mg/mL) [mm] | Inhibition zone, A. oxydans 9333 ([6]; peptide 10 mg/mL) [mm] | Inhibition effect, P. aeruginosa 3700 ([2]; 1.4 mg/mL) [%] | Inhibition effect, P. aeruginosa 3700 ([2]; 10 mg/mL) [%] | Inhibition zone, P. aeruginosa 3700 ([2]; peptide 1.4 mg/mL) [mm] | Inhibition zone, P. aeruginosa 3700 ([2]; peptide 10 mg/mL) [mm] | PIF (photo irritation factor) [7] | CC50 [8] [µM] | further results
CNC(C)C1CCC(N)C(OC2C(N)CC(N)C(OC3OCC(C)(O)C(NC)C3O)C2O)O1 (stereo not shown) [Gentamicin, reference compound] | – | – | – | – | – | – | – | – | – | – | – | – | – | – | – | – | – | – | – | – | Inhibition zone, E. coli 8785, antibiotic control [1, 13]: 18.0 mm; Inhibition zone, P. aeruginosa 3700, antibiotic control [2, 13]: 17.0 mm and 16.0 mm
CC[C@H](C)[C@H](NC(=O)CNC(=O)[C@H](CO)NC(=O)[C@H](CC(C)C)NC(=O)[C@@H](NC(=O)[C@H](CCCNC(N)=O)NC(=O)CNC(=O)[C@@H](NC(=O)[C@H](CC(C)C)NC(=O)[C@@H]1CCCN1C(=O)[C@H](CC(C)C)NC(=O)[C@@H](N)Cc1ccccc1)[C@@H](C)CC)C(C)C)C(=O)N[C@@H](CC(C)C)C(N)=O [DTCit, FLPLIG-Cit-VLSGIL-NH2] (H-FLPLIG[Cit]VLSGIL-NH2; N-terminus assumed) | 335 ± 4.37 | 0.90 | 0.0 | 0.0 | 0.0 | 0.0 | 0.0 | 0.0 | 0.0 | 0.0 | 0.0 | 0.0 | 0.0 | 0.0 | 0.0 | 0.0 | 0.0 | 0.0 | 1.07 | 356 ± 7.64 | CC50 at 24 h [8]: 332 ± 12.3 µM; IC50 [9]: 150 ± 6.94 µM; SI (Selectivity Index), MCF-7 [9]: 2.01; IC50 [10]: 301 ± 10.5 µM; MIC, A. oxydans 9333 ([11]; broth dilution, 0 to 320 µg/mL, NI = no inhibition monitored): 160 µg/mL (≈ 114 µM); MBC, A. oxydans 9333 ([11]; plated from concentrations ≥ MIC): 160 µg/mL (≈ 114 µM)
CCC(C)n1ncn(-c2ccc(N3CCN(c4ccc(OCC5COC(Cn6cncn6)(c6ccc(Cl)cc6Cl)O5)cc4)CC3)cc2)c1=O (stereo not shown) [Itraconazole, reference compound] | – | – | – | – | – | – | – | – | – | – | – | – | – | – | – | – | – | – | – | – | Inhibition zone, C. albicans 74, antibiotic control [5, 13]: 15.0 mm and 14.0 mm
CC[C@H](C)[C@H](NC(=O)CNC(=O)[C@H](CO)NC(=O)[C@H](CC(C)C)NC(=O)[C@@H](NC(=O)[C@H](CN)NC(=O)CNC(=O)[C@@H](NC(=O)[C@H](CC(C)C)NC(=O)[C@@H]1CCCN1C(=O)[C@H](CC(C)C)NC(=O)[C@@H](N)Cc1ccccc1)[C@@H](C)CC)C(C)C)C(=O)N[C@@H](CC(C)C)C(N)=O [DTDap, FLPLIG-Dap-VLSGIL-NH2] (H-FLPLIG[Dap]VLSGIL-NH2; N-terminus assumed) | 581 ± 17.5 | 1.09 | 0.0 | 0.0 | 0.0 | 0.0 | 0.0 | 0.0 | 0.0 | 0.0 | 0.0 | 53.0 | 0.0 | 9.8 ± 0.3 | 0.0 | 51.8 | 0.0 | 8.8 ± 0.8 | 0.99 | 924 ± 21.6 | CC50 at 24 h [8]: 933 ± 20.7 µM; IC50 [9]: 473 ± 16.2 µM; SI (Selectivity Index), MCF-7 [9]: 1.33; IC50 [10]: 630 ± 9.97 µM; MIC, B. subtilis 3562 [12]: 320 µg/mL (≈ 241 µM)
O=C(N[C@H](CO)[C@H](O)c1ccc([N+](=O)[O-])cc1)C(Cl)Cl [Chloramphenicol, reference compound] | – | – | – | – | – | – | – | – | – | – | – | – | – | – | – | – | – | – | – | – | Inhibition zone, B. subtilis 3562, antibiotic control ([4]; 30 µg/disk, positive control on the plate of the peptide of that line): 26.0 mm and 25.0 mm
